Tests used:
[1] = test system: Rabbit plaque aorta or normal rabbit aorta; test: Ex vivo blood vessel binding assay; design: species or system New Zealand white rabbits; conditions: radiolabeled compound incubated with rabbit aorta (0.5 cm) in phosphate buffered saline for 2 hours at 37° C; bound compound as percentage of the incubated compound
Excerpt: Normal aorta was obtained from New Zealand white rabbits. Aorta bearing atherosclerotic plaque was obtained from New Zealand white rabbits balloon stripped along the abdominal aorta and placed on a high fat diet (0.5% cholesterol) for 16-22 weeks. Vascular injury was produced with a 3-F Fogarty catheter along the abdominal aorta and left iliofemoral artery. This procedure generates an accelerated complex lesion development with a lipid rich core covered by a fibrous cap in rabbits. Rabbit plaque aorta or normal rabbit aorta (0.5 cm) was incubated with 10 nCi of ^14C labeled compound or 1.5 μCi of ^99m Tc labeled compound or 0.135 μCi of ^111In labeled compound or 0.135 μCi of ^68Ga labeled compound or 0.135 µCi of ^153Gd labeled compound diluted in phosphate buffered saline (450 μL) for 2 hours at 37° C. The supernatant from this sample was collected and analyzed by HPLC to determine compound stability in presence of blood vessels. The blood vessel tissue was then washed with phosphate buffered saline (3×10 mL). Phosphate buffered saline (10 ml) was added to the tissue and incubated at 37° C. for 1 hour. The tissue was then washed with phosphate buffered saline (3×10 mL). The washed tissue was oxidized in a tissue oxidizer for C-14 labeled compounds. The counts in the oxidized tissue were determined on a beta counter. Blood vessels incubated with ^99m Tc labeled compound or ^111In labeled compound or ^68Ga labeled compound or ^153Gd labeled compound were counted on a gamma counter. The amount of compound bound to the tissue was determined as a percentage of the incubated compound. This was calculated using the following formula: [formula]

[2] = test system: aorta of apolipoprotein E (apoE) knockout mouse; test: In vivo ApoE mouse aorta uptake study; conditions: 60 min postinjection; for Aorta (% ID/g): ApoE mouse on high-fat diet 37-41 weeks, tail vein bolus; for Aorta/Blood Ratio: ApoE mouse, calculated from the % ID/g data
Method: Mice were fed a high-fat diet to accelerate plaque formation and compounds were tested in the mice between 37-41 weeks on diet. Test compounds were radiolabeled (^14C, ^99mTc, or ^111In as described above) and administered at 0.02-4.0 mCi/kg to anesthetized mice in a single, bolus injection via the tail vein. Blood samples were collected via the tail between 0-30 minutes postinjection for pharmacokinetic analysis and mice were euthanized by CO2 at 60 minutes for tissue harvesting. The aorta were flushed with saline through the left ventricle exiting via the femoral vein. The aorta were then removed from the heart to the renal bifurcation and additional tissue samples collected (blood, muscle, liver, kidney, heart, lung, spleen and innominate artery). All samples were weighed and assayed for radioactivity. Tissue uptake is expressed as percent of injected dose per gram of tissue (% ID/g). The aorta to blood ratios were calculated from the % ID/g data.

Row | Aorta (% ID/g) [2] | Aorta/Blood Ratio [2] | Compound | Tissue Binding % [1]
1 | – | – | Boc-d-Leu-N(Me)-NH-Ahx-H [Example 141] | 0.75%
2 | 6.1 % ID/g | 5.4 | H-d-Stya-Ambh-DTPA [Example 187] | 13.66%
3 | 1.3 % ID/g | 0.8 | CC(C)C[C@@H](NC(=O)OC(C)(C)C)C(=O)NCC(=O)NCCCCN [Example 140, Boc-d-Leu-Gly-NH-Butyl-NH2] | 0.52%
4 | 4.0 % ID/g | 3.0 | Boc-d-Leu-NHNH2 [Example 122] | 13.99%
5 | 3.3 % ID/g | 1.0 | H-d-Leu-NHNH-DTPA [Example 189] | 1.08%
6 | – | – | H-d-Phe-Inph-DTPA [Example 199] | 3.36%
7 | 6.8 % ID/g | 3.3 | H-d-Cha-Ahxh-DTPA [Example 194] | 16.33%
8 | 5.1 % ID/g | 2.2 | H-d-Nle-Ahxh-DTPA [Example 200] | 2.72%
9 | 9.9 % ID/g | 3.9 | H-d-Hphe-Ambh-Ahx-DTPA [Example 211] | 18.09%
10 | 8.1 % ID/g | 3.3 | Boc-d-Phe-Ahxh-H [Example 129] | 14.42%
11 | 7.8 % ID/g | 6.3 | H-d-Phe(4-NHBz)-Ambh-DTPA [Example 205] | 8.83%
12 | 12.5 % ID/g | 11.3 | H-d-Trp-Apph-ETPA [Example 184] | 13.08%
13 | 3.7 % ID/g | 1.2 | H-d-His-Ahxh-DTPA [Example 172] | 4.22%
14 | 4.0 % ID/g | 3.3 | H-d-Ser(Bzl)-Ahxh-DTPA [Example 166] | 5.91%
15 | 2.8 % ID/g | 2.2 | H-cLeu-Ahxh-DTPA [Example 188] | 3.91%
16 | 5.8 % ID/g | 3.2 | H-d-Tyr(Bzl)-Ambh-DTPA [Example 206] | 19.62%
17 | 9.8 % ID/g | 7.3 | H-d-Cys(Bzl)-Apph-DTPA [Example 181] | 13.91%
18 | 7.0 % ID/g | 1.5 | [H-d-Cys(Bzl)-Apph]2EDTA[APEEPA-DTPA]2 [Example 186] | 7.78%
19 | 7.5 % ID/g | 5.8 | H-d-Hphe-Ahxh-DTPA [Example 168] | 9.17%
20 | 8.6 % ID/g | 6.7 | Boc-d-Leu-Ambh-H [Example 138] | 21.11%
21 | – | – | H-Ahxh-d-Leu-Boc [Example 137] | 1.43%
22 | – | – | Boc-Leu-PABA-CO-d-Leu-Ahxh-H [Example 127] | 24.22%
23 | – | – | Boc-Aib-Ahxh-H [Example 130] | 3.33%
24 | 7.0 % ID/g | 5.4 | H-d-Cha-Apah-DTPA [Example 170] | 7.55%
25 | 2.3 % ID/g | 1.9 | H-d-Phe-NHNH-DTPA [Example 192] | 1.78%
26 | – | – | Boc-d-Lys(e-Leu(Boc))-Ahxh-H [Example 136] | 9.15%
27 | 11.2 % ID/g | 8.1 | H-d-H2phe-Ambh-DTPA [Example 185] | 10.64%
28 | – | – | Boc-d-Glu(tBu)-Ahxh-H [Example 132] | 2.47%

Row | Aorta (% ID/g) [2] | Aorta/Blood Ratio [2] | Compound | Tissue Binding % [1]
29 | 10.5 % ID/g | 11.2 | H-d-Hphe-mAmbh-DTPA [Example 210] | 13.13%
30 | – | – | Boc-d-Arg(Pmc)-Ahxh-H [Example 131] | 5.19%
31 | 11.0 % ID/g | 4.5 | H-d-Phe-Apph-Ahx-DTPA [Example 182] | 12.02%
32 | – | – | H-d-Cys(Bzl)-Ambh-DTPA [Example 179] | 9.67%
33 | 4.6 % ID/g | 1.9 | H-cLeu-Ambh-DTPA [Example 195] | 9.52%
34 | 7.9 % ID/g | 5.9 | H-d-Bip-Ahxh-DTPA [Example 175] | 32.09%
35 | – | – | N,N-Me2-d-Leu-Ahxh-H [Example 125] | 4.63%
36 | 5.3 % ID/g | 1.5 | H-d-Val-Ahxh-DTPA [Example 191] | 3.02%
37 | 8.3 % ID/g | 4.2 | H-d-Tic-Apah-DTPA [Example 178] | 6.00%
38 | 7.1 % ID/g | 4.7 | H-d-Bip-NHNH-DTPA [Example 162] | 6.39%
39 | 2.1 % ID/g | 1.2 | Boc-L-d-Leu-Ahxh-H [Example 150] | 5.36%
40 | 7.9 % ID/g | 8.7 | H-d-Phe(CF3)-Apah-DTPA [Example 177] | 13.53%
41 | – | – | H-d-Cha-Inph-DTPA [Example 197] | 6.97%
42 | – | – | H-d-Val-Ambh-DTPA [Example 198] | 5.26%
43 | 9.8 % ID/g | 7.8 | H-d-Cha-Ambh-DTPA [Example 196] | 8.25%
44 | 12.6 % ID/g | 10.8 | H-d-2-Nal-Ambh-DTPA [Example 212] | 18.78%
45 | 1.3 % ID/g | 0.6 | Boc-d-Leu-N(Me)-NH-Ahx-NH2 [Example 126] | 2.97%
46 | 8.4 % ID/g | 9.8 | H-d-Hphe-Pheh-AEEA-DTPA [Example 213] | 26.68%
47 | 9.3 % ID/g | 4.6 | Boc-d-Leu-Apah-H [Example 121] | 30.55%
48 | 6.7 % ID/g | 5.3 | H-d-Phe(F5)-Ambh-DTPA [Example 204] | 16.11%
49 | 6.1 % ID/g | 5.1 | H-d-Tyr(Et)-Apah-DTPA [Example 169] | 13.53%
50 | – | – | Boc-βLeu-Ahxh-H [Example 135] | 2.30%
51 | – | – | Boc-d-Ala-Ahxh-H [Example 134] | 5.72%
52 | – | – | CC(C)CC(NC(=O)OC(C)(C)C)C(=O)NNC(=O)NN (stereo not drawn) [Example 124, Boc-d-Leu-NHNH—CO—NHNH2] | 5.85%
53 | – | – | Boc-d-Leu-NHNH—CO-(PEG)4-NH2 [Example 123] | 9.74%
54 | – | – | H-d-Leu-Apah-DOTA [Example 160] | 9.59%
55 | – | – | H-d-Pro-Ahxh-DTPA [Example 165] | 5.51%

— patent publication US20070014721A1, “Hydrazide conjugates as imaging agents” (priority 2005, published 2007)
